Earlier results on three compounds are cited in patent US9731015B2, “Water-soluble lipophilic natural compound formulations” (priority 2012, dated 2017).

The structures appear in SMILES notation.

The conditions of data set [1]: background statement.
The conditions of data set [2]: humans, up to 4 g.
For data set [3] the following is noted: animal pharmacokinetic studies.

Regarding `COC1=C(OC)C(=O)C(C/C=C(\C)CC/C=C(\C)CC/C=C(\C)CC/C=C(\C)CC/C=C(\C)CC/C=C(\C)CC/C=C(\C)CC/C=C(\C)CC/C=C(\C)CCC=C(C)C)=C(C)C1=O` [Co-enzyme Q-10, ubidecarenone], the solubility in water result in data set [1] is given as “insoluble in water”.

As for `O=c1c(O)c(-c2ccc(O)c(O)c2)oc2cc(O)cc(O)c12` [quercetin], the “quercetin in plasma after oral administration” value in data set [2] was “No quercetin could be found in plasma”.

`Oc1ccc(C=Cc2cc(O)cc(O)c2)cc1` [resveratrol, 3,5,4′-trihydroxystilbene]: the solubility in water entry in data set [1] is “virtually insoluble in water”. The “bioavailability of oral doses” value in data set [3] is recorded as “very low bioavailability”.
